Assay results from patent publication US9487462B2, “Inhibitors of matrix metalloproteinases” (PharmaHungary 2000 Kft., priority 2010, dated 2016).
Read-outs that look alike come from different tables or passages of the source.

Key:
[1] = molecular target: T1, MMP1 (Homo sapiens (Human), UniProt P03956); experiment: MMP activity assay (fluorogenic substrate), MMP1; format: biochemical
Target sequence in this assay (P03956 100-469, species assumed): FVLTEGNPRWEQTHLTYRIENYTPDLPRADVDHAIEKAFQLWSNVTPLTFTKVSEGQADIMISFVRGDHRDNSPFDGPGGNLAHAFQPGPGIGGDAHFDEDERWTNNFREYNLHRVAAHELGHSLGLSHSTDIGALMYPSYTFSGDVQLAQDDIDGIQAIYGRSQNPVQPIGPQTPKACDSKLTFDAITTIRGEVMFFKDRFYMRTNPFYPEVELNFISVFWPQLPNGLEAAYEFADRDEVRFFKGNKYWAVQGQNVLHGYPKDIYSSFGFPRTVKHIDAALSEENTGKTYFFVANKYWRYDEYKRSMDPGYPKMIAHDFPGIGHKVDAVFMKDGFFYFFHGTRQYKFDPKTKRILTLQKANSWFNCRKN

[2] = molecular target: MMP2 (Homo sapiens, UniProt P08253); experiment: MMP activity assay (fluorogenic substrate), MMP2 catalytic domain; format: biochemical
[3] = Cytotoxicity, alamarBlue viability, HCT116; format: cell-based; conditions: human, HCT116 colon tumor cells, 48 hours incubation, read-out: HCT116 LC50
Summary of the method: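 Cells exposed to compound dilutions for 48 hours, then alamarBlue added for 4 hours; fluorescence read at ex 540/em 590 nm. IC50 from six concentrations run in duplicate.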

[4] = molecular target: T1, MMP1; experiment: In vitro zymography assay (casein), MMP-1; format: biochemical; conditions: % ± SD
Method: (§1) MMP-2 and MMP-9 enzymes were isolated from rat hearts and from rat spleen while human, recombinant MMP-1 and MMP-13 enzymes used were commercial. MMP-2, -9, -13 enzymes were separated by electrophoresis during non-reducing conditions on 8% SDS-polyacrylamide gels copolymerized with 2 mg/ml gelatin from porcine skin (Sigma Aldrich) while MMP-1 was separated under the same conditions on 8% SDS-polyacrylamide gels copolymerized with 2 mg/ml casein (Sigma Aldrich). […] In case of MMP-13 p-aminophenylmercuric acetate (APMA) was used for enzyme activation at 37° C. for 30 min. After electrophoresis, gels were washed in 2.5% Triton-X 100 with agitation and then incubated for 20 hrs at 37° C. in enzyme incubation buffer (50 mM Tris-HCl, pH 7.5, containing 5 mM CaCl2, 200 mM NaCl) with or without MMP inhibitor. Zymographic gels were stained in Coomassie Brilliant Blue R-250 and de-stained. Gelatin and casein zymograms were scanned. MMP activity is detected as a white zone on a blue background and the clear bands in the gel can be quantified by densitometry. The obtained density values were measured and % inhibition values calculated (Kupai et al., 2010). The table below summarizes the prescreen inhibition values determined for different MMP inhibitors on MMP1, -2, -9, -13.
Target sequence in this assay (P03956 100-469): as the sequence (P03956 100-469, species assumed) above

[5] = molecular target: MMP-2 (Rattus norvegicus (Rat), UniProt P33436); experiment: In vitro zymography assay (gelatin), MMP-2; format: biochemical
MMP-2, sequence (P33436 110-662): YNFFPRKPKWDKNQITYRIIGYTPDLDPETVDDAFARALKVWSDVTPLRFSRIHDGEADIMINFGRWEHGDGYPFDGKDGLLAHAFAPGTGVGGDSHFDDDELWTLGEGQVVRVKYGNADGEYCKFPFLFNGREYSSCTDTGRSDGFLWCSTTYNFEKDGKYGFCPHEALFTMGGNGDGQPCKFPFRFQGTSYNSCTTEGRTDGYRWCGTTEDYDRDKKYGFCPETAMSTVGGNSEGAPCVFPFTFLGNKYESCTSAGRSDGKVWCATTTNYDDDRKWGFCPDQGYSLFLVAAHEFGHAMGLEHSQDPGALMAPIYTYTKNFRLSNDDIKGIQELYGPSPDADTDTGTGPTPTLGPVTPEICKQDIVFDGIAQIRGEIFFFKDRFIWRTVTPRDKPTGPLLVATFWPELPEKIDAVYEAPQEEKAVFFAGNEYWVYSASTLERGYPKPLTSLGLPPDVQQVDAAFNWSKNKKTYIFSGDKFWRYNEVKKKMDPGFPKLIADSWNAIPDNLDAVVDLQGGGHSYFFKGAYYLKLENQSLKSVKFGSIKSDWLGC
Method: as §1

[6] = molecular target: MMP13 (Homo sapiens (Human), UniProt P45452); experiment: In vitro zymography assay (gelatin), MMP-13; format: biochemical; conditions: % ± SD
Method: as §1

[7] = system: neonatal rat cardiac myocytes; experiment: Cytoprotective effect in cardiac myocytes subjected to hypoxia and reoxygenation; format: cell-based
Summary of the method: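 Day-3 neonatal rat cardiomyocytes subjected to 4 h simulated ischemia (95% N2/5% CO2, hypoxic solution, 37 °C) or normoxia, then reoxygenation. MMP inhibitors at EC5, EC10, EC20 and EC50 (DMSO vehicle; ilomastat 0.5 µM control) present throughout; viability by calcein-AM relative to digitonin/propidium iodide total cell count.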

[8] = read-out: % inhibition MMP-1 (52 kDa)
[9] = read-out: % inhibition MMP-1 (55 kDa)

IC50 ([1]; Table 2, read-out: MM1 IC50): 51 µM | IC50 ([1]; read-out: IC50 on MMP1): 46 µM | IC50 ([2]; Table 2, read-out: MMP2 IC50): 5.7 µM | IC50 ([2]; read-out: IC50 on MMP2): 5.7 µM | inhibition at 1 µM [4, 8]: 25.9 ± 9.51% | inhibition at 1 µM [4, 9]: 29.2 ± 38.7% | inhibition at 100 µM [4, 8]: 58 ± 12.6% | inhibition at 100 µM [4, 9]: 95.3 ± 8.17% | inhibition at 1 µM ([5]; 1 μM, % ± SD, read-out: % inhibition MMP-2 (72 kDa)): 100% | inhibition at 100 µM ([5]; 100 μM, % ± SD, read-out: % inhibition MMP-2 (72 kDa)): 100% | selectivity in the inhibition of different MMP isoenzymes ([5]; summary in words, MMP1, MMP2, MMP9, MMP13): highly selective for MMP2 | IC50 ([5]; zymography, Table 8, read-out: IC50 on MMP-2): 11.2 µM | inhibition at 1 µM ([6]; 1 μM, read-out: % inhibition MMP-13 (50 kDa)): 54.4 ± 2.33% | % inhibition MMP-13 (50 kDa) ([6]; 100 μM): No inhibition
Structure (SMILES): O=C(O)c1csc(CN(Cc2ccc(F)cc2)Cc2ccc(OCc3cccnc3)cc2)n1 [Compound 1, 2-({[(4-Fluorophenyl)methyl]({[4-(pyridin-3-ylmethoxy)phenyl]methyl})amino}methyl)-1,3-thiazole-4-carboxylic acid]
CC50 at 48 h [3]: 11 µM | Cytoprotective effect, % cell survival as compared to vehicle DMSO ([7]; normoxia, EC5 concentration 2.6 microM): 120 ± 2 % | Cytoprotective effect, % cell survival as compared to vehicle DMSO ([7]; normoxia, EC10 concentration 6.3 microM): 99 ± 2% | Cytoprotective effect, % cell survival as compared to vehicle DMSO ([7]; normoxia, EC20 concentration 10.4 microM): 94 ± 2% | Cytoprotective effect, % cell survival as compared to vehicle DMSO ([7]; normoxia, EC50 concentration 17.7 microM): 86 ± 2 % | Cytoprotective effect, % cell survival as compared to vehicle DMSO ([7]; simulated ischemia, EC5 concentration 2.6 microM): 125 ± 6 % | Cytoprotective effect, % cell survival as compared to vehicle DMSO ([7]; simulated ischemia, EC10 concentration 6.3 microM): 109 ± 2% | Cytoprotective effect, % cell survival as compared to vehicle DMSO ([7]; simulated ischemia, EC20 concentration 10.4 microM): 106 ± 2% | Cytoprotective effect, % cell survival as compared to vehicle DMSO ([7]; simulated ischemia, EC50 concentration 17.7 microM): 97 ± 2%
